Common to all, as to test: NCI-60 cell line screen, 48 h
In experiment [1] the test system is 786-0 renal.
The test system of experiment [2] is HS 578T breast.
In experiment [3] the test system is NCI-H522 lung.
In experiment [4] the test system is OVCAR-8 ovarian.
Experiment [5] concerns PC-3 prostate.
The subject of experiment [6] is SK-MEL-2 melanoma.
Experiment [7] deals with SK-MEL-28 melanoma.
Experiment [8] deals with SK-MEL-5 melanoma.
Experiment [9] deals with SN12C renal.
In experiment [10] the test system is SR leukemia.

Each structure is given as a SMILES string.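 Step 1: Grow cells in 96-well plates. Step 2: Expose to compound for 48 hours at 5 concentrations. Step 3: Interpolate endpoints linearly; if unreached, use highest concentration. GI50 is the concentration that inhibits growth by half. TGI: concentration producing complete growth inhibition.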 A value given as a limit tells only on which side of the number the result lay.

From PubChem BioAssay (NCI) come the findings set out here.

Turning to `O=C(O)c1cccc(OCCO)c1`, the TGI in experiment [1], in experiment [2], in experiment [3], in [4], in [5] and in [6] was > 100 µM throughout. The TGI in experiment [7], in experiment [8], in experiment [9] and in experiment [10] was > 100 µM throughout.

Take `O=C(Nc1ccc(Cl)cc1F)c1cc(Br)ccc1O`: the GI50 is 2.58 µM in [1]; 0.521 µM in experiment [2]; 0.481 µM in [3]; 1.13 µM in experiment [4]; 1.83 µM in experiment [5]; 0.467 µM in experiment [6]. For the same compound, the GI50 is 0.563 µM in experiment [7], 0.3 µM in [8], 0.788 µM in experiment [9] and 0.7 µM in [10]. Moreover, the TGI in experiment [1] was 7.43 µM; in [2], 4.08 µM; in [3] it was 9.23 µM; in experiment [4], > 37.4 µM; in experiment [5] it was 8.53 µM; in experiment [6], 3.18 µM. In addition, the TGI in experiment [7] is 3.19 µM; in [8], 1.07 µM; in [9] it was 8.58 µM; in experiment [10], > 23 µM.

In the case of `Nc1nc(Cl)cc(NCCO)n1`, the TGI in [1], in [2], in experiment [3], in [4], in [5] and in experiment [6] was > 100 µM in each case. In addition, the TGI in experiment [7], in experiment [8], in experiment [9] and in experiment [10] was > 100 µM throughout.

Consider `O=C(N/N=C\c1cc(Br)ccc1O)c1ccncc1`, for which the GI50 in experiment [1] is 2.46 µM; in experiment [2], 13.4 µM; in [3] it was 2.17 µM; in experiment [4], 1.38 µM; in [5], 1.87 µM; in experiment [6] it was 4.29 µM. The GI50 in experiment [7] was 3.52 µM; in [8], 2.6 µM; in experiment [9], 4.63 µM; in experiment [10], 2.45 µM. Further, the TGI is > 100 µM in experiment [1]; > 100 µM in [2]; 19.8 µM in experiment [3]; > 100 µM in [4]; > 100 µM in [5]; > 100 µM in experiment [6]. For the same compound, the TGI in [7] was > 100 µM; in experiment [8] it was 21.8 µM; in experiment [9], > 100 µM; in [10] it was > 100 µM.

For the compound `COc1cc2cn3c4ccc(O)cc4[nH]c(=O)c3c2cc1OC`, the GI50 in [1] was 0.0715 µM; in experiment [2] it was 0.0702 µM; in [3], < 0.01 µM; in experiment [4], 0.0319 µM; in experiment [5], 0.0461 µM; in experiment [6], 0.0398 µM. The GI50 is < 0.01 µM in experiment [7], < 0.015 µM in experiment [8], 0.0435 µM in experiment [9] and 0.0173 µM in experiment [10]. The TGI in experiment [1] was 2.02 µM; in [2], > 100 µM; in [3], 0.0263 µM; in experiment [4], 1.53 µM; in [5], 2.02 µM; in experiment [6] it was 5.36 µM. Also, the TGI in experiment [7] is 0.681 µM; in experiment [8], 0.563 µM; in [9], 1.98 µM; in experiment [10], 1.79 µM.

For the compound `Cc1[nH]n(-c2cccc(Cl)c2)c(=O)c1/C=C1\C=Nc2ccc(Br)cc21`, the GI50 in [1] was 2.14 µM; in [2], 2.46 µM; in experiment [3], 3.67 µM; in experiment [4], 3.52 µM; in experiment [5] it was 3.64 µM; in experiment [6], 10.5 µM. Also, the GI50 in [7] was 19.6 µM; in experiment [8] it was 9.48 µM; in experiment [9] it was 2.88 µM; in experiment [10] it was 1.88 µM. The TGI in [1] stood at 4.68 µM; in experiment [2] it was 8.04 µM; in experiment [3], 17.5 µM; in [4] it was 13.8 µM; in experiment [5], 22.3 µM; in experiment [6], 24.6 µM. The TGI is > 100 µM in experiment [7], > 100 µM in experiment [8], 11.9 µM in experiment [9] and 3.99 µM in experiment [10].

On to `CC(=O)O[C@@H]1C[C@]2(C(C)C)O[C@@]1(C)[C@@H]1CCC(C)=C1[C@@H]2OC(=O)/C=C/c1ccccc1`, for which the GI50 in experiment [1] is 84.3 µM; in [2], 4.79 µM; in experiment [3], 20.7 µM; in [4] it was 8.89 µM; in experiment [5], 8.33 µM; in experiment [6], > 100 µM. For the same compound, the GI50 in [7] is 69.9 µM; in experiment [8] it was 22.5 µM; in [9] it was 10.4 µM; in [10] it was 31.8 µM. Besides, the TGI in experiment [1], in [2], in experiment [3], in experiment [4], in experiment [5] and in experiment [6] was > 100 µM each time. Also, the TGI was > 100 µM in experiment [7], 78.5 µM in experiment [8], > 100 µM in [9] and > 100 µM in experiment [10].

Consider `NC(=O)C(=CNc1nc(-c2ccc(Cl)c(Cl)c2)cs1)C(N)=O`, for which the GI50 is > 100 µM in experiment [1]; 26.9 µM in [2]; 11.8 µM in [3]; 80.7 µM in experiment [4]; > 100 µM in experiment [5]; 75.6 µM in [6]. The GI50 in [7] was > 100 µM; in [8], 71.6 µM; in experiment [9], > 100 µM; in [10], 38.7 µM. In addition, the TGI in [1], in experiment [2], in [3], in experiment [4], in [5] and in experiment [6] was > 100 µM throughout. The TGI in experiment [7], in experiment [8], in experiment [9] and in experiment [10] was > 100 µM throughout.
